Assay [1] has as its target T1, Muscarinic acetylcholine receptor M2 (Homo sapiens) (UniProt P08172).
T1 sequence (whole entry): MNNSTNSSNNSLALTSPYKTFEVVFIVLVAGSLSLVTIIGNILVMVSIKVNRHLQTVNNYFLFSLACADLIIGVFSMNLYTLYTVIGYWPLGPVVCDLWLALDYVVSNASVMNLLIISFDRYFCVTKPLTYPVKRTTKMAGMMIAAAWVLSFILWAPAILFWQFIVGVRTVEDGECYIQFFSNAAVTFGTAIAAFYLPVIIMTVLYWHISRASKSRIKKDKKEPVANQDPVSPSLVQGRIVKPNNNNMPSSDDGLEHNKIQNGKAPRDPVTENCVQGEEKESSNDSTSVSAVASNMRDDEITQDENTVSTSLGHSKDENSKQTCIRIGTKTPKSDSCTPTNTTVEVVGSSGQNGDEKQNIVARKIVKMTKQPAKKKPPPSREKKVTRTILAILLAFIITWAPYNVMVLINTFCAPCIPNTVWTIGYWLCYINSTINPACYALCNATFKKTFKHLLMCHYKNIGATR
In words: Ability to displace [3H]N-methylscopolamine binding to M2 human recombinant muscarinic receptor in CHO cells at concentration 1 uM. It counts as cell-based.

The target of assay [2] is T2, Muscarinic acetylcholine receptor M1 (Homo sapiens) (UniProt P11229).
T2 sequence (whole entry): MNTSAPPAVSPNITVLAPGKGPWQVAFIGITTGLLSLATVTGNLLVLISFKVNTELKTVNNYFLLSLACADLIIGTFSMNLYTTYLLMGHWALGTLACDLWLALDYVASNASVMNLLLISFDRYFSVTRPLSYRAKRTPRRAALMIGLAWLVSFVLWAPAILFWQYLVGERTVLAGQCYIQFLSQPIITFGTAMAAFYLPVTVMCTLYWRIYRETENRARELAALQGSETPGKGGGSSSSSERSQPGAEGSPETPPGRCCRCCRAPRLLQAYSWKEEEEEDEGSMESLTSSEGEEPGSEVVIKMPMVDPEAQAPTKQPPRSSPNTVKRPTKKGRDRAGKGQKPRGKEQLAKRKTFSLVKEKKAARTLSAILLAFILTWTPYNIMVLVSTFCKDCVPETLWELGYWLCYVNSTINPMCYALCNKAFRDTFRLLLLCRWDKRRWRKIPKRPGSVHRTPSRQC
As to the kind of experiment: Ability to displace [3H]N-methylscopolamine binding to M1 human recombinant muscarinic receptor in CHO cells at concentration 1 uM. It counts as cell-based.

The target in assay [3] is T1, Muscarinic acetylcholine receptor M2 (Homo sapiens). In words: Ability to displace [3H]N-methylscopolamine binding to M2 human recombinant muscarinic receptor in CHO cells at concentration 10 uM. It counts as cell-based.
For assay [4], the target named is Muscarinic acetylcholine receptor M3 (Homo sapiens) (UniProt P20309). As to the kind of experiment: Ability to displace [3H]N-methylscopolamine binding to M3 human recombinant muscarinic receptor in CHO cells at concentration 10 uM. Type of assay: cell-based.
Muscarinic acetylcholine receptor M3 (Homo sapiens), sequence (P20309 whole entry, looked up): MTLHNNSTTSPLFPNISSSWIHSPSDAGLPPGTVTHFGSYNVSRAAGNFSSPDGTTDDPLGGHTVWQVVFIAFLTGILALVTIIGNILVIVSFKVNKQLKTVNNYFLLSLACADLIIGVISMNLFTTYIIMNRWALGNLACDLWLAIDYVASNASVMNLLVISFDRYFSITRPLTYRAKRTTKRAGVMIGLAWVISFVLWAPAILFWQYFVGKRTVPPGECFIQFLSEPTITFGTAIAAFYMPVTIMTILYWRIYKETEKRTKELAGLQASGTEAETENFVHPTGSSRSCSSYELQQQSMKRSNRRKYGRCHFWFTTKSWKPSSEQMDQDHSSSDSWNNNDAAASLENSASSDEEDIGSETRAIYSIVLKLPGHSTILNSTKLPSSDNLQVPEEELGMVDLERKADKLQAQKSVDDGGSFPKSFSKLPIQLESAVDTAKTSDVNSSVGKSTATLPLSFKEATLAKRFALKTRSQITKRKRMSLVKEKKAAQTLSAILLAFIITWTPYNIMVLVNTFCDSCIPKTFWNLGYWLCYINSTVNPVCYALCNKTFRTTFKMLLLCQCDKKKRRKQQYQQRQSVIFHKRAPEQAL
For assay [5], the target named is T3, Neuronal acetylcholine receptor (Rattus norvegicus) (UniProt P04757+P09483+P12389+P12390+P12392+P43144+Q9JLB5+P12391+P43143+P20420+Q05941). As to the kind of experiment: Ability to displace [3H]cytisine binding to nicotinic receptor in synaptic membrane fractions from rat cerebral cortices at a concentration of 10 uM. Type of assay: cell membranes.
Assay [6] deals with Muscarinic acetylcholine receptor M3 (Homo sapiens) (UniProt P20309). As to the kind of experiment: Ability to displace [3H]N-methylscopolamine binding to M3 human recombinant muscarinic receptor in CHO cells at concentration 1 uM. It counts as cell-based.
Assay [7] deals with T4, Muscarinic acetylcholine receptor M1 (Homo sapiens, UniProt P11229).
T4 sequence (P11229 whole entry): T2 sequence (whole entry)
As to the kind of experiment: The compound was tested for its binding affinity against M1 human recombinant muscarinic receptor in CHO cells. It counts as cell-based.

Assay [8] has as its target T2, Muscarinic acetylcholine receptor M1 (Homo sapiens). In words: Ability to displace [3H]N-methylscopolamine binding to M1 human recombinant muscarinic receptor in CHO cells at concentration 10 uM. Type of assay: cell-based.
Assay [9] concerns the target T3, Neuronal acetylcholine receptor (Rattus norvegicus). In words: (§1) Ability to displace [3H]cytisine binding to Nicotinic acetylcholine receptor in synaptic membrane fractions from rat cerebral cortices at a concentration of 10 uM. Type of assay: cell membranes.
The target in assay [10] is T5, Acetylcholine receptor subunit delta (Torpedo californica) (UniProt P02718).
T5 sequence (whole entry): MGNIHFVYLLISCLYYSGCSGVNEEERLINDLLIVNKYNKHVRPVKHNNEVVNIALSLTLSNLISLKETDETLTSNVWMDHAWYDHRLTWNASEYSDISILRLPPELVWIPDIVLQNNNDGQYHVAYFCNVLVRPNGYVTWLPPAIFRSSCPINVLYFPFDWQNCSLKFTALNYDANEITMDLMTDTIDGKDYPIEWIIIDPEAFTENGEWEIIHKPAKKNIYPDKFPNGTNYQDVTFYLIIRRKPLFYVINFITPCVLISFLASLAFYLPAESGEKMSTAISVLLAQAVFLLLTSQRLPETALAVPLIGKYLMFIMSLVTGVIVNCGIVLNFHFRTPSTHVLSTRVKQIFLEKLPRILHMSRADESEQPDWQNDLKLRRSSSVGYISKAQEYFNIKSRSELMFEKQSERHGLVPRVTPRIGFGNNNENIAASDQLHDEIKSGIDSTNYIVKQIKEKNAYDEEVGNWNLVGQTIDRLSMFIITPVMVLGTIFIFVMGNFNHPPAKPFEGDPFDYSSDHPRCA
The description is as §1. It counts as cell membranes. The following applies: target entry is the homologue from another species.

Some results are limits rather than exact numbers.

The values that follow come from ChEMBL document CHEMBL1131993, “Binding affinities of 3-(3-phenylisoxazol-5-yl)methylidene-1-azabicycles to acetylcholine receptors” (Bioorg Med Chem Lett, 1999).

For the compound `CC(C)(C)OC(=O)Nc1ccc(-c2cc(/C=C3/CN4CCC3CC4)on2)cc1`, the inhibition is 16% in assay [1]; 57% in assay [2]; 67% in assay [3]; 87% in [4]; 43% in assay [5]; 31% in assay [6]. Also, the inhibition in assay [8] stood at 95%. In assay [7], the concentration for half-maximal inhibition (IC50) is 806 nM.

As to `CC(C)(C)OC(=O)Nc1ccc(-c2cc(/C=C3\CN4CCC3CC4)on2)cc1`, the inhibition in [1] came to 14%; in assay [2], 12%; in assay [3], 36%; in [4], 41%; in assay [5], 64%; in assay [6] it was 5%. Also, in assay [8], the inhibition was found to be 59%. For the same compound, in assay [7], the IC50 is > 10 nM.

As to `COc1ccc(COc2ccc(-c3cc(/C=C4\CN5CCC4C5)on3)cc2)cc1` (configuration not stated), the inhibition in assay [9] amounted to 0%; in assay [2] it was 69%; in [8] it was 84%.

Consider `COc1ccc(COc2ccc(-c3cc(/C=C4/CN5CCC4CC5)on3)cc2)cc1`, for which the inhibition in [1] was determined as 26%; in assay [2], 89%; in [3] it was 83%; in assay [4], 52%; in assay [5], 0%; in assay [6], 22%. Moreover, the inhibition in [8] was determined as 93%. For the same compound, in assay [7], the IC50 was found to be 250 nM.

Regarding `COc1ccc(COc2ccc(-c3cc(/C=C4/CN5CCC4C5)on3)cc2OCc2ccc(OC)cc2)cc1` (configuration not stated), the inhibition came to 24% in [1]; 39% in [2]; 78% in [3]; 82% in assay [4]; 0% in assay [5]; 9% in assay [6]. Further, the inhibition in [8] stood at 91%. The IC50 in assay [7] came to 1230 nM.

For `COc1ccc(COc2ccc(-c3cc(/C=C4/CN5CCC4CC5)on3)cc2OCc2ccc(OC)cc2)cc1`, the inhibition in [1] amounted to 27%; in assay [2], 85%; in assay [3], 89%; in assay [4] it was 94%; in assay [5], 0%; in [6], 44%. Moreover, the inhibition in assay [8] amounted to 100%. Also, in [7], the IC50 was 247 nM.

For the compound `COc1ccc(-c2cc(/C=C3\CN4CCC3C4)on2)cc1` (configuration not stated), the inhibition was 7% in assay [1]; 55% in [9]; 0% in assay [2]; 24% in assay [3]; 2% in [4]; 0% in [6]. Moreover, the inhibition in [8] was found to be 34%.

Take `Nc1ccc(-c2cc(/C=C3\CN4CCC3CC4)on2)cc1`: the inhibition in [1] turned out to be 0%; in assay [9] it was 77%; in assay [2] it was 0%; in [3], 5%; in [4] it was 0%; in assay [6] it was 0%. Also, the inhibition in [8] worked out at 4%.

`Oc1ccc(-c2cc(/C=C3/CN4CCC3C4)on2)cc1O` (configuration not stated): the inhibition in assay [1] came to 6%; in [2], 0%; in [3], 9%; in assay [4] it was 0%; in assay [5], 64%; in [6] it was 0%. Besides, the inhibition in assay [8] was 16%.

Consider `COc1ccc(-c2cc(/C=C3/CN4CCC3CC4)on2)cc1OC`, for which the inhibition in assay [1] was 30%; in assay [2], 28%; in assay [3] it was 71%; in [4], 46%; in [5], 90%; in assay [6], 6%. Also, the inhibition in [8] was determined as 81%.

Regarding `Cc1ccc(-c2cc(/C=C3\CN4CCC3CC4)on2)cc1`, the inhibition in [1] turned out to be 0%; in assay [2], 0%; in assay [3], 13%; in assay [4], 0%; in assay [5], 26%; in [6], 0%. In addition, in [8], the inhibition was determined as 0%.

In the case of `COc1ccc(COc2ccc(-c3cc(/C=C4\CN5CCC4CC5)on3)cc2)cc1`, the inhibition in assay [1] is 55%; in assay [2] it was 77%; in assay [3], 46%; in assay [4], 37%; in assay [5], 0%; in assay [6] it was 31%. Moreover, the inhibition in assay [8] was 64%. Besides, the IC50 in assay [7] was 809 nM.

On to `Oc1ccc(-c2cc(/C=C3\CN4CCC3CC4)on2)cc1O`, for which the inhibition in assay [1] was 0%; in [10] it was 88%; in [2], 0%; in [3] it was 7%; in [4], 0%; in [6], 0%. For the same compound, the inhibition in assay [8] was determined as 8%.

For the compound `COc1ccc(COc2ccc(-c3cc(/C=C4\CN5CCC4CC5)on3)cc2OCc2ccc(OC)cc2)cc1`, the inhibition came to 49% in [1]; 85% in assay [2]; 92% in assay [3]; 98% in assay [4]; 0% in [5]; 76% in [6]. The inhibition in [8] stood at 100%. In addition, the IC50 in assay [7] is 260 nM.

With `COc1ccc(-c2cc(/C=C3/CN4CCC3C4)on2)cc1` (configuration not stated), the inhibition stood at 15% in assay [1]; 58% in [9]; 8% in assay [2]; 19% in [3]; 0% in [4]; 0% in assay [6]. Further, in assay [8], the inhibition came out at 45%.

On to `COc1ccc(-c2cc(/C=C3/CN4CCC3CC4)on2)cc1`, for which the inhibition came out at 16% in [1]; 23% in assay [2]; 63% in [3]; 63% in [4]; 68% in assay [5]; 14% in assay [6]. Besides, the inhibition in assay [8] is 79%.

Consider `C(=C1\CN2CCC1CC2)/c1cc(-c2ccccc2)no1`, for which the inhibition amounted to 0% in assay [1]; 7% in [2]; 38% in [3]; 48% in [4]; 48% in assay [5]; 12% in assay [6]. Moreover, the inhibition in [8] amounted to 51%.

Turning to `COc1ccc(-c2cc(/C=C3\CN4CCC3CC4)on2)cc1`, the inhibition was 10% in assay [1]; 0% in assay [2]; 19% in [3]; 18% in assay [4]; 25% in assay [5]; 3% in assay [6]. Also, the inhibition in assay [8] turned out to be 21%.

Take `COc1ccc(COc2ccc(-c3cc(/C=C4\CN5CCC4C5)on3)cc2OCc2ccc(OC)cc2)cc1` (configuration not stated): the inhibition in [1] is 77%; in [2] it was 87%; in [3] it was 95%; in assay [4], 98%; in assay [5], 0%; in [6], 88%. For the same compound, the inhibition in [8] came out at 100%. Also, the IC50 in assay [7] came out at 114 nM.

Usually inhibition stands for the percentage by which the read-out fell short of the control. What is called IC50 is the point on the concentration scale where inhibition reaches its midpoint.
